Source: patent US11992560B2, “Electrospun fibers for a local release of an anti-inflammatory drug and a promyelinating drug” (ALMA MATER STUDIORUM—UNIVERSITÀ DI BOLOGNA, priority 2018, dated 2024)

Test system: LPS stimulated RAW 264.7 cells
Experiment: In vitro efficacy: gene expression (qPCR) in LPS stimulated RAW cells treated with conditioned medium
Format: cell-based, murine
Settings: conditioned medium 24 h, LPS 500 ng/ml; respect to sc LPS or ibsc
Experimental: The murine macrophage cell line RAW 264.7 was purchased from the American Type Culture Collection (ATCC® TIB-71™). Cells were grown at 37° C. in DMEM high glucose medium (Thermo Fisher Scientific) supplemented with 10% heat-inactivated fetal bovine serum (FBS—Thermo Fisher Scientific), 1% penicillin/streptomycin (100 U ml-1/100 μg ml-1) (Thermo Fisher Scientific), in a humidified incubator of 5% CO2. When 70-80% confluency was reached, cells were detached mechanically with the scraper and subcultured in 75 cm2 flasks.
In order to evaluate the bioactivity of ibuprofen and T3 released from electrospun PLLA fibres conditioned medium was prepared ad described below. […] Three samples/group were analysed.
At the end of the treatments total RNA isolation was performed with the RNeasy Micro kit (Qiagen) following the manufacturer's instructions. Total RNA was eluted in RNase-free water and concentration estimated through absorbance values at 260, 280 and 320 nm (Nanodrop 2000 spectrophotometer, Thermo Scientific). […] Semi-quantitative real-time PCR was performed using the CFX96 real-time PCR system (Bio-Rad). […] Relative quantification of the target genes expression was calculated using the comparative threshold method 2^(—ΔΔCT). […]

CC(C)Cc1ccc(C(C)C(=O)O)cc1 (stereo not shown) [SC+IBU, Ibuprofen]
TNFα mRNA level (in words): comparable
